From ChEMBL document CHEMBL1127693, “Novel isoxazoles which interact with brain cholinergic channel receptors have intrinsic cognitive enhancing and anxiolytic activities” (J Med Chem, 1994)

Experiments:
[1] = Binding affinity at CCR was determined by displacement of [125I]- alpha-BgT from rat brain; assay type: tissue-based
[2] = Binding affinity at CCR was determined by displacement of [125I]- alpha-BgT from Torpedo californica electroplax; parameters: species or system Tetronarce californica
[3] = Binding affinity at CCR was determined by displacement of [3H]cytisine from rat brain; assay type: tissue-based
[4] = target: Muscarinic acetylcholine receptor (Rattus norvegicus); test: Binding affinity at muscarinic receptor was determined by displacement of [3H]OXO-M from rat brain
[5] = Binding affinity at CCR was determined by displacement of [3H]nicotine from rat brain; assay type: tissue-based

Compound	Ki [1]	Ki [2]	Ki [3]	Ki [4]	Ki [5]
Cc1cc([C@@H]2CCCN2)on1	> 20000 nM	> 20000 nM	333 nM	> 20000 nM	–
c1cncc([C@H]2CCCN2)c1	–	300 nM	–	–	41 nM
Cc1cc([C@H]2CCCN2C)on1	–	–	44 nM	–	–
Cc1cc([C@H]2CCCN2)on1	> 20000 nM	3400 nM	7.4 nM	8000 nM	–
CN1CCC[C@H]1c1cccnc1 [NICOTINE]	–	–	–	–	1.4 nM
c1cncc([C@@H]2CCCN2)c1 [NORNICOTINE]	–	11000 nM	–	–	56 nM
CN1CCC[C@@H]1c1cccnc1 [R-NICOTINE]	–	–	–	–	32 nM
